Assays:
Format in all cases: cell-based
[1] = tested on: histamine release by mastocytes; experiment: Release of histamine by mastocytes stimulated with substance P (ELISA); conditions: 10 nM calcium; 10 μM substance P
Experimental: The mastocytes were then stimulated with 10 μM substance P for 15 minutes. At the end of incubation, the release of histamine was quantified by ELISA.
(§1) The results were analyzed statistically by a Student's t-test.

[2] = tested on: IL8 production by human keratinocytes (NCTC-2544 cell line); experiment: Production of IL8 by PMA-stimulated keratinocytes (ELISA); conditions: 10^−7 M dexamethasone, 0.1 μg/ml PMA
Experimental: The cells were then treated with 0.1 μg/ml phorbol myristate acetate (PMA) for 24 hours, always in the presence of AV or the references.
At the end of the treatment, the quantities of interleukin 8 (IL8) and prostaglandin E2 (PGE2) secreted were measured by ELISA in the culture supernatants.
as §1

[3] = tested on: PGE2 production by human keratinocytes (NCTC-2544 cell line); experiment: Production of PGE2 by PMA-stimulated keratinocytes (ELISA); conditions: 10^−6 M indomethacin, 0.1 μg/ml PMA
[4] = tested on: Normal human epidermal melanocytes; experiment: Melanin production by melanocytes stimulated by NDP-MSH; conditions: 0.25 mM kojic acid; 10^−7 M NDP-MSH; 240 hours
Experimental: After 240 hours of incubation, melanin was extracted from the cells and quantified by spectrophotometry. The results were analyzed statistically by a Student's t-test.

[5] = tested on: laminin-5 (subunit γ2) gene expression in normal human keratinocytes; experiment: Gene expression of laminin-5 (subunit γ2) in keratinocytes, real-time RT-PCR; conditions: 5 ng/ml TGFβ1; 48 hours
Experimental: (§2) Normal human keratinocytes were incubated for 48 hours in the presence of the avocado extract concentrated in polyphenols (AV) at concentrations of 0.001% and 0.005% (w/v of active material) or 5 ng/ml TGFβ1 (reference).
(§3) The gene expression of MMP9 and laminin-5 (subunit γ2) was studied by real-time RT-PCR.
(§4) The results were analyzed statistically by a one-factor ANOVA followed by a Dunnett's test: ns (not significant) p>0.05; *p<0.05; ***p<0.001.

[6] = tested on: MMP9 gene expression in normal human keratinocytes; experiment: Gene expression of MMP9 in keratinocytes, real-time RT-PCR; conditions: 5 ng/ml TGFβ1; 48 hours
Experimental: as §2, §3, §4

[Ca+2] [Calcium, calcium]
Histamine [1]: 21.8 ± 1.0 ng/mL | Inhibition of histamine release [1]: −85% p < 0.01

C[C@@H]1C[C@H]2[C@@H]3CCC4=CC(=O)C=C[C@]4(C)[C@@]3(F)[C@@H](O)C[C@]2(C)[C@@]1(O)C(=O)CO [Dexamethasone, dexamethasone]
IL8 [2]: 7.4 ± 0.8 ng/mL | inhibition at 0.1 µM ([2]; Homo sapiens, NCTC-2544): 85%

COc1ccc2c(c1)c(CC(=O)O)c(C)n2C(=O)c1ccc(Cl)cc1 [Indomethacin, indomethacin]
PGE2 [3]: 0.039 ± 0.0 ng/mL | inhibition at 1 µM ([3]; Homo sapiens, NCTC-2544): 100%

O=c1cc(CO)occ1O [Kojic acid, kojic acid]
Change in melanin versus stimulated control [4]: −32% p < 0.001

TGFβ1: 5 ng/ml TGFβ1 (reference) in keratinocyte migration marker test
Laminin-5 gene expression (relative quantity) [5]: 11.33 | Laminin-5 gene expression, change versus control cells [5]: +1033% *** | MMP9 gene expression (relative quantity) [6]: 19.84 | MMP9 gene expression, change versus control cells [6]: +1884% ***

From patent US11026441B2, “Avocado flesh and/or skin extract rich in polyphenols and cosmetic, dermatological and nutraceutical compositions comprising same” (Laboratoires Expanscience, priority 2010, dated 2021)
